Test results reported in PubChem BioAssay AID2060485 (Molecular Pharmacology Branch, DTP, NCI, 2025).
Several values for one entry are separate records, joined by “and”; a condition that tells them apart may be missing. Identical values can stand only once.

Tested on: A375 multi-cell spheroids with HUVEC/MSC, viability
Assay: Anticancer human tumor A375 cell line growth inhibition [GQUAD];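 note: spheroids exposed to compounds for seven days before readout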
Conditions: for viability, T/C: stronger effect = lower value
Excerpt: DNA G-quadruplex Stabilizer Agents in Combinations in Complex Spheroids
A high-throughput screen of multi-cell type tumor spheroids was designed to identify active combinations of DNA G-quadruplex stabilizer agents and targeted small molecules. Complex spheroids include a stromal component modeled by human endothelial cells (HUVEC) and fibroblasts modeled by human mesenchymal stem cells (MSCs). The concentration ranges selected for each drug and investigational agent were based upon clinically achievable concentrations if the clinical Cmax of the agent was known.
Compounds. The drugs and investigational agents: pidnarulex (CX-5461; NSC782164), APTO-253 (NSC789042), BRACO-19 (NSC847499), peposertib (NSC802822), ceralasertib (NSC780249), elimusertib (NSC800525), camonsertib (NSC841442), AZD-1390 (NSC803789), olaparib (NSC753686), talazoparib (NSC767125), ART-558 (NSC835418), sotorasib (NSC818433), MRTX-1133 (NSC836407), SN-38 (NSC673596), topotecan (NSC609699), etoposide (NSC141540), doxorubicin (NSC123127), gemcitabine (NSC613327), 5-fluorouracil (NSC19893), paclitaxel (NSC125973), vemurafenib (NSC761431), panobinostat (NSC761190), R-306465 (JNJ-16241199; NSC773264), adavosertib (NSC754352), TP-3654 (NSC805149), carboplatin (NSC241240), KSQ-4279 (NSC840948), and staurosporine (NSC755774) were obtained from the National Cancer Institute (NCI) Developmental Therapeutics Program Chemical Repository (34). The FDA-approved anticancer drug set is available from the NCI Developmental Therapeutics Program. […] The stock solutions were prepared in dimethyl sulfoxide (DMSO, Sigma-Aldrich, St. Louis, MO, cat. D2650) at 800-fold the tested concentration and stored at -70 degrees C prior to their use. All drugs and investigational agents were tested over a range starting from a high concentration at or near the clinical Cmax and decreasing in half-log increments. If the clinical Cmax for an agent had not been determined, the highest concentration tested was 10 microM.
2.3 Cell Culture. All cells were maintained in an incubator at 37 degrees C and 5% CO2 with 95% humidity. The PDC lines were cultured according to standard operating procedures established by the NCI PDMR. All PDCs were thawed and cultured in Matrigel-coated flasks prepared with a working solution of 1X Ham's F-12 nutrient mix, without supplementation (Invitrogen, cat. 11765054), 100 U/mL penicillin-streptomycin (Invitrogen, cat. 15140122), and 2.5% Matrigel (Corning Inc., cat. 354248) for the first three passages. The 857933-349-R-J2-PDC line was cultured in 6C/Colon 1B media, which includes advanced DMEM/F-12 (Thermo Fisher Scientific, cat. 12634028), 10 mM HEPES (Thermo Fisher Scientific, cat. 15630080), 1X GlutaMAX supplement (Thermo Fisher Scientific, cat. 35050061), 0.1 mg/mL primocin (InvivoGen, cat. ant-pm-2), 10% defined fetal bovine serum, heat inactivated (HyClone Laboratories Inc., cat. SH30070.03HI), 50% L-WRN conditioned media (ATCC, cat. CRL-3276), 1.25 mM N-Acetyl-L-cysteine (Sigma-Aldrich, cat. A9165), 10 mM nicotinamide (Sigma-Aldrich, cat. N0636), 1X B-27 supplement (Thermo Fisher Scientific, cat. 17504044), 1X N-2 supplement (Thermo Fisher Scientific, cat. 17502048), 10 microM Y-27632 dihydrochloride (Tocris Bioscience, cat. 1254), and 50 ng/mL human EGF recombinant protein (Thermo Fisher Scientific, cat. PHG0311). The 485176-168-R4-J1-PDC line was cultured in Panc media, which includes all 6C/Colon 1B media components plus 100 ng/mL human FGF-10 (Thermo Fisher Scientific, cat. 100-26), 500 nM SB-431542 (Selleckchem, cat. S1067), and gastrin (Tocris, cat. 3006).
[…]

[1] = compound alone, run of 03/18/2024

Compound: COc1cc(C2c3cc4c(cc3C(OC3OC5COC(C)OC5C(O)C3O)C3COC(=O)C23)OCO4)cc(OC)c1O (stereo unspecified)
- viability, T/C (compound 0.0316 µM): 93.3% and 94.2% and 109%
- viability, T/C (compound 0.1 µM): 105% (2×) and 118%
- viability, T/C (compound 0.316 µM): 93.9% and 92.3% and 76.3%
- viability, T/C (compound 1 µM): 65.6% and 63.6% and 58.4%
- viability, T/C (compound 3.16 µM): 34% and 34.8% and 33.6%
- viability, T/C (compound 10 µM): 24.1% and 21.5% and 21.2%
- IC50 (curve of compound): 1750 nM and 1690 nM and 1370 nM

Compound: COc1ccc([C@@H](O)c2cc(-c3ncnc4cc(N5CCOCC5)ccc34)c(F)cc2Cl)nn1
- viability, T/C (compound 0.0316 µM): 97.1% and 112%
- viability, T/C (compound 0.1 µM): 107% and 117%
- viability, T/C (compound 0.316 µM): 102% and 98.3%
- viability, T/C (compound 1 µM): 101% and 103%
- viability, T/C (compound 3.16 µM): 100% and 91%
- viability, T/C (compound 10 µM): 83% and 67.6%
- IC50 (curve of compound): > 10000 nM

Compound: Cc1[nH]c2ccc(F)cc2c1-c1nc2c3cccnc3c3ncccc3c2[nH]1
- viability, T/C (compound 0.0316 µM): 99.2% [middle of 12 runs]
- viability, T/C (compound 0.1 µM): 99.6% [middle of 12 runs]
- viability, T/C (compound 0.316 µM): 103% [middle of 12 runs]
- viability, T/C (compound 1 µM): 102% [middle of 12 runs]
- viability, T/C (compound 10 µM): 100% [middle of 12 runs]
- IC50 [1]: > 10000 nM
- IC50 (compound alone, run of 03/26/2024): > 10000 nM

Compound: Cc1[nH]c2ccccc2c1CCNCc1ccc(/C=C/C(=O)NO)cc1
- viability, T/C (compound 0.000999 µM): 103% and 99.2% and 97.9%
- viability, T/C (compound 0.00316 µM): 98.1% and 105% and 101%
- viability, T/C (compound 0.00999 µM): 110% and 118% and 113%
- viability, T/C (compound 0.0316 µM): 114% (2×) and 115%
- viability, T/C (compound 0.0999 µM): 49.5% and 57.8% and 96%
- viability, T/C (compound 0.316 µM): 7.14% and 9% and 10.9%
- IC50 (curve of compound): 99.1 nM and 120 nM and 186 nM

Compound: Cc1cccc(N(C)C(=O)C2C(O)CCN2c2nc(C)cc(C(F)(F)F)c2C#N)c1 (stereo unspecified)
- viability, T/C (compound 0.0316 µM): 110% and 103% and 101%
- viability, T/C (compound 0.1 µM): 94.9% and 106% and 101%
- viability, T/C (compound 0.316 µM): 97.7% and 98.8% and 106%
- viability, T/C (compound 1 µM): 97.1% and 104% and 90.2%
- viability, T/C (compound 3.16 µM): 96.7% and 109% and 108%
- viability, T/C (compound 10 µM): 97.8% and 103% and 95%
- IC50 (curve of compound): > 10000 nM

Compound: Cc1cnc(CNC(=O)c2c(=O)c3ccc(N4CCCN(C)CC4)nc3n3c2sc2ccccc23)cn1
- viability, T/C (compound 0.0316 µM): 101% [middle of 11 runs]
- viability, T/C (compound 0.1 µM): 82.4% [middle of 11 runs]
- viability, T/C (compound 0.316 µM): 57.1% [middle of 11 runs]
- viability, T/C (compound 1 µM): 42.3% [middle of 11 runs]
- viability, T/C (compound 3.16 µM): 37.6% [middle of 11 runs]
- viability, T/C (compound 10 µM): 31.1% [middle of 11 runs]
- IC50 [1]: 582 nM [middle of 11 runs]

Compound: Cn1ncnc1[C@H]1c2n[nH]c(=O)c3cc(F)cc(c23)N[C@@H]1c1ccc(F)cc1
- viability, T/C (compound 0.000999 µM): 93.9% and 104% and 90.5%
- viability, T/C (compound 0.00316 µM): 98% and 101% and 97%
- viability, T/C (compound 0.00999 µM): 104% and 103% and 98.8%
- viability, T/C (compound 0.0316 µM): 108% and 106% and 99.2%
- viability, T/C (compound 0.0999 µM): 112% and 104% and 98.9%
- viability, T/C (compound 0.316 µM): 94.1% and 91.5% and 92.8%
- IC50 (curve of compound): > 316 nM

Compound: O=C(c1cc(Cc2n[nH]c(=O)c3ccccc23)ccc1F)N1CCN(C(=O)C2CC2)CC1
- viability, T/C (compound 0.0316 µM): 93.2% and 101% and 92.1%
- viability, T/C (compound 0.1 µM): 92% and 98.2% and 93.7%
- viability, T/C (compound 0.316 µM): 98.1% and 94.9% and 107%
- viability, T/C (compound 1 µM): 101% (2×) and 99.2%
- viability, T/C (compound 3.16 µM): 101% and 105% and 95.4%
- viability, T/C (compound 10 µM): 91% and 84.7% and 87.8%
- IC50 (curve of compound): > 10000 nM
